The source of these data is article PMC4281105 (Journal of medicinal chemistry, 2014).

In assay [1] the test system is hRSV strain Long. Kind of assay: hRSV CPE assay. Format: cell-based, human respiratory syncytial virus.
Assay [2] relates to RSV. Description: viral titer. Format: cell-based, human respiratory syncytial virus. Conditions: for log reduction at 10 µM: human respiratory syncytial virus, read-out: viral titer reduction at 10 µM.
The mark [3] stands for this setting: human respiratory syncytial virus, HEp-2, read-out: RSV CPE potency ± standard deviation EC50, HEp-2 cells, hRSV strain Long, 10-point dose response.
Setting [4] is: read-out: RSV CPE potency ± standard deviation EC50, HEp-2 cells, hRSV strain Long, 10-point dose response.

Like-named read-outs stand apart in the source and are kept apart here. Marks after values point to notes of the source that are not given here. Bounds are passed on as bounds.

As usually defined, the EC50 is the concentration needed to bring the measured effect to its halfway point.

`COCCCNC(=O)c1ccc(Cn2c(=O)c3ccccc3n(Cc3ccc(C)cc3)c2=O)cc1` [Compound 2, N-(3-Methoxypropyl)-4-((1-(4-methylbenzyl)-2,4-dioxo-1,2-dihydroquinazolin-3(4H)-yl)methyl)benzamide]: the EC50 in assay [1] (setting [3]) is 2140 nM; in assay [1] (setting [4]) it was 2100 ± 500 nM. For the same compound, the log reduction at 10 µM in assay [2] stood at 4.2.
On to `COCCCNC(=O)c1ccc(Cn2c(=O)c3ccccc3n(Cc3ccccc3Br)c2=O)cc1` [Compound 8, 4-((1-(2-Bromobenzyl)-2,4-dioxo-1,2-dihydroquinazolin-3(4H)-yl)methyl)-N-(3-methoxypropyl)benzamide], for which the EC50 in assay [1] (setting [3]) is above 50000 nM.
With `COCCCNC(=O)c1ccc(Cn2c(=O)c3ccccc3n(Cc3cccc(Br)c3)c2=O)cc1` [Compound 9, 4-((1-(3-Bromobenzyl)-2,4-dioxo-1,2-dihydroquinazolin-3(4H)-yl)methyl)-N-(3-methoxypropyl)benzamide], in assay [1] (setting [3]), the half-maximal effective concentration (EC50) was 2200 ± 100 nM.
As for `COCCCNC(=O)c1ccc(Cn2c(=O)c3ccccc3n(Cc3ccc(Br)cc3)c2=O)cc1` [Compound 10, 4-((1-(4-Bromobenzyl)-2,4-dioxo-1,2-dihydroquinazolin-3(4H)-yl)methyl)-N-(3-methoxypropyl)benzamide], in assay [1] (setting [3]), the EC50 was 900 ± 200 nM. Besides, in assay [2], the log reduction at 10 µM came to 4.1.
Consider `COCCCNC(=O)c1ccc(Cn2c(=O)c3ccccc3n(Cc3ccc(F)cc3)c2=O)cc1` [Compound 12, 4-((1-(4-Fluorobenzyl)-2,4-dioxo-1,2-dihydroquinazolin-3(4H)-yl)-methyl)-N-(3-methoxypropyl)benzamide], for which, in assay [1] (setting [3]), the EC50 amounted to 5100 ± 400 nM.
On to `COCCCNC(=O)c1ccc(Cn2c(=O)c3ccccc3n(Cc3ccc(Cl)cc3)c2=O)cc1` [Compound 13, 4-((1-(4-Chlorobenzyl)-2,4-dioxo-1,2-dihydroquinazolin-3(4H)-yl)methyl)-N-(3-methoxypropyl)benzamide], for which the EC50 in assay [1] (setting [3]) amounted to 6700 ± 1900 nM. Also, the log reduction at 10 µM in assay [2] amounted to 3.1.
The matching figures for `COCCCNC(=O)c1ccc(Cn2c(=O)c3ccccc3n(Cc3ccc(OC)cc3)c2=O)cc1` [Compound 14, 4-((1-(4-Methoxybenzyl)-2,4-dioxo-1,2-dihydroquinazolin-3(4H)-yl)methyl)-N-(3-methoxypropyl)benzamide]: 2000 ± 900 nM and 2.7.
For `COCCCNC(=O)c1ccc(Cn2c(=O)c3ccccc3n(Cc3ccc([N+](=O)[O-])cc3)c2=O)cc1` [Compound 15, N-(3-Methoxypropyl)-4-((1-(4-nitrobenzyl)-2,4-dioxo-1,2-dihydroquinazolin-3(4H)-yl)methyl)benzamide], the EC50 is 500 ± 50 nM in assay [1] (setting [3]) and 300 to 500 nM in assay [1] (human respiratory syncytial virus, RSV CPE, as given in abstract). Further, the “viral titer reduction at 10 µM” value in assay [2] (compound at 10 µM) was 5.6 ^f log. The log reduction at 10 µM in assay [2] came out at 5.6.
Turning to `COCCCNC(=O)c1ccc(Cn2c(=O)c3ccccc3n(Cc3ccc(C(F)(F)F)cc3)c2=O)cc1` [Compound 16, 4-((2,4-Dioxo-1-(4-(trifluoromethyl)benzyl)-1,2-dihydroquinazolin-3(4H)-yl)methyl)-N-(3-methoxypropyl)benzamide], the concentration for a half-maximal effect (EC50) in assay [1] (setting [3]) was 1300 ± 100 nM. The log reduction at 10 µM in assay [2] came out at 2.7.
The matching figures for `COCCCNC(=O)c1ccc(Cn2c(=O)c3ccccc3n(Cc3ccc(C#N)cc3)c2=O)cc1` [Compound 17, 4-((1-(4-Cyanobenzyl)-2,4-dioxo-1,2-dihydroquinazolin-3(4H)-yl)methyl)-N-(3-methoxypropyl)benzamide]: 1300 ± 200 nM and 4.2.
On to `CCc1ccc(Cn2c(=O)n(Cc3ccc(C(=O)NCCCOC)cc3)c(=O)c3ccccc32)cc1` [Compound 18, 4-((1-(4-Ethylbenzyl)-2,4-dioxo-1,2-dihydroquinazolin-3(4H)-yl)-methyl)-N-(3-methoxypropyl)benzamide], for which the EC50 in assay [1] (setting [3]) is 1000 ± 50 nM. In addition, in assay [2], the log reduction at 10 µM came out at 5.9.
For the compound `COCCCNC(=O)c1ccc(Cn2c(=O)c3ccccc3n(Cc3ccc4nonc4c3)c2=O)cc1` [Compound 20, 4-((1-(Benzo[c][1,2,5]oxadiazol-5-ylmethyl)-2,4-dioxo-1,2-dihydroquinazolin-3(4H)-yl)methyl)-N-(3-methoxypropyl)benzamide], the EC50 in assay [1] (setting [3]) was 4900 ± 700 nM. Further, the log reduction at 10 µM in assay [2] is 2.1.
Take `COCCCNC(=O)c1ccc(Cn2c(=O)c3ccccc3n(Cc3cc(C)on3)c2=O)cc1` [Compound 21, N-(3-Methoxypropyl)-4-((1-((5-methylisoxazol-3-yl)methyl)-2,4-dioxo-1,2 dihydroquinazolin-3(4H)-yl)methyl)benzamide]: in assay [1] (setting [3]), the concentration for a half-maximal effect (EC50) was above 50000 nM.
Consider `COCCCNC(=O)c1ccc(Cn2c(=O)c3ccccc3n(Cc3ccccn3)c2=O)cc1` [Compound 22, 4-((2,4-Dioxo-1-(pyridin-2-ylmethyl)-1,2-dihydroquinazolin-3(4H)-yl)methyl)-N-(3-methoxypropyl)benzamide], for which the EC50 in assay [1] (setting [3]) was above 50000 nM. Moreover, in assay [2], the log reduction at 10 µM stood at 0.1.
As for `CCOCCCNC(=O)c1ccc(Cn2c(=O)c3ccccc3n(Cc3ccc(C)cc3)c2=O)cc1` [Compound 24, N-(3-Ethoxypropyl)-4-((1-(4-methylbenzyl)-2,4-dioxo-1,2-dihydroquinazolin-3(4H)-yl)methyl)benzamide], the concentration for a half-maximal effect (EC50) in assay [1] (setting [3]) was found to be 1900 ± 200 nM.
With `Cc1ccc(Cn2c(=O)n(Cc3ccc(C(=O)NCCCOC(C)C)cc3)c(=O)c3ccccc32)cc1` [Compound 25, N-(3-Isopropoxypropyl)-4-((1-(4-methylbenzyl)-2,4-dioxo-1,2-dihydroquinazolin-3(4H)-yl)methyl)benzamide], the EC50 in assay [1] (setting [3]) was found to be 2000 ± 200 nM.
Still for that read-out and setting: next, `Cc1ccc(Cn2c(=O)n(Cc3ccc(C(=O)NCCCN(C)C)cc3)c(=O)c3ccccc32)cc1` [Compound 26, N-(3-(Dimethylamino)propyl)-4-((1-(4-methylbenzyl)-2,4-dioxo-1,2-dihydroquinazolin-3(4H)-yl)methyl)benzamide]: 9500 ± 400 nM; `COCCNC(=O)c1ccc(Cn2c(=O)c3ccccc3n(Cc3ccc(C)cc3)c2=O)cc1` [Compound 28, N-(2-Methoxyethyl)-4-((1-(4-methylbenzyl)-2,4-dioxo-1,2-dihydroquinazolin-3(4H)-yl)methyl)benzamide]: 2200 ± 1400 nM; `Cc1ccc(Cn2c(=O)n(Cc3ccc(C(=O)N4CCOCC4)cc3)c(=O)c3ccccc32)cc1` [Compound 31, 1-(4-Methylbenzyl)-3-(4-(morpholine-4-carbonyl)benzyl)-quinazoline-2,4(1H,3H)-dione]: above 50000 nM.
On the same count and under the same terms, next, `Cc1ccc(Cn2c(=O)n(Cc3ccc(C(=O)N4CCCC4)cc3)c(=O)c3ccccc32)cc1` [Compound 32, 1-(4-Methylbenzyl)-3-(4-(pyrrolidine-1-carbonyl)benzyl)-quinazoline-2,4(1H,3H)-dione]: above 50000 nM.
Still for that read-out and setting: next, `Cc1ccc(Cn2c(=O)n(Cc3ccc(C(=O)N4CCCCC4)cc3)c(=O)c3ccccc32)cc1` [Compound 33, 1-(4-Methylbenzyl)-3-(4-(piperidine-1-carbonyl)benzyl)-quinazoline-2,4(1H,3H)-dione]: above 50000 nM.
Consider `CNC(=O)c1ccc(Cn2c(=O)c3ccccc3n(Cc3ccc(C)cc3)c2=O)cc1` [Compound 34, N-Methyl-4-((1-(4-methylbenzyl)-2,4-dioxo-1,2-dihydroquinazolin-3(4H)-yl)methyl)benzamide], for which, in assay [1] (setting [3]), the EC50 was found to be 2200 ± 900 nM.
Turning to `Cc1ccc(Cn2c(=O)n(Cc3ccc(C(=O)N(C)C)cc3)c(=O)c3ccccc32)cc1` [Compound 35, N,N-Dimethyl-4-((1-(4-methylbenzyl)-2,4-dioxo-1,2-dihydroquinazolin-3(4H)-yl)methyl)benzamide], the EC50 in assay [1] (setting [3]) is above 50000 nM.
The same measure, in the same setting: next, `Cc1ccc(Cn2c(=O)n(Cc3ccc(C(=O)NC4CCCCC4)cc3)c(=O)c3ccccc32)cc1` [Compound 37, N-Cyclohexyl-4-((1-(4-methylbenzyl)-2,4-dioxo-1,2-dihydroquinazolin-3(4H)-yl)methyl)benzamide]: above 50000 nM.
Same read-out and setting: next, `Cc1ccc(Cn2c(=O)n(Cc3ccc(C(=O)Nc4ccccc4)cc3)c(=O)c3ccccc32)cc1` [Compound 38, 4-((1-(4-Methylbenzyl)-2,4-dioxo-1,2-dihydroquinazolin-3(4H)-yl)methyl)-N-phenylbenzamide]: above 50000 nM; `Cc1ccc(Cn2c(=O)n(Cc3ccc(C(=O)NCc4ccccc4)cc3)c(=O)c3ccccc32)cc1` [Compound 39, N-Benzyl-4-((1-(4-methylbenzyl)-2,4-dioxo-1,2-dihydroquinazolin-3(4H)-yl)methyl)benzamide]: above 50000 nM; `Cc1ccc(Cn2c(=O)n(Cc3ccc(C(=O)NCc4ccco4)cc3)c(=O)c3ccccc32)cc1` [Compound 40, N-(Furan-2-ylmethyl)-4-((1-(4-methylbenzyl)-2,4-dioxo-1,2-dihydroquinazolin-3(4H)-yl)methyl)benzamide]: above 50000 nM.
As for `Cc1ccc(Cn2c(=O)n(Cc3ccc(C(=O)Nc4nccs4)cc3)c(=O)c3ccccc32)cc1` [Compound 41, 4-((1-(4-Methylbenzyl)-2,4-dioxo-1,2-dihydroquinazolin-3(4H)-yl)methyl)-N-(thiazol-2-yl)benzamide], the EC50 in assay [1] (setting [3]) is above 50000 nM.
Consider `COc1cc(NC(=O)c2ccc(Cn3c(=O)c4ccccc4n(Cc4ccc(C(C)C)cc4)c3=O)cc2)ccn1` [Compound 50, 4-((1-(4-Isopropylbenzyl)-2,4-dioxo-1,2-dihydroquinazolin-3(4H)-yl)methyl)-N-(2-methoxypyridin-4-yl)benzamide], for which the EC50 in assay [1] (setting [3]) came to 500 ± 60 nM.
For `COCCCNC(=O)c1ccc(Cn2c(Cc3cccc(C(C)C)c3)nc3ccccc3c2=O)cc1` [Compound 51, 4-((2-(3-Isopropylbenzyl)-4-oxoquinazolin-3(4H)-yl)methyl)-N-(3-methoxypropyl) benzamide], the EC50 in assay [1] (setting [4]) is above 50000 nM.
Regarding `COCCCNC(=O)c1ccc(Cn2c(Cc3ccc(C(C)C)cc3)nc3ccccc3c2=O)cc1` [Compound 52, 4-((2-(4-Isopropylbenzyl)-4-oxoquinazolin-3(4H)-yl)methyl)-N-(3-methoxypropyl)benzamide], in assay [1] (setting [3]), the EC50 is above 50000 nM.
